Laboratory results as given in patent US9428553B2, “Meditopes and meditope-binding antibodies and uses thereof” (City of Hope, priority 2012, dated 2016).
Entries after “also recorded” stand apart in the source; their conditions may differ. Where a SMILES comes first, the peptide text is derived from it. Bridges are numbered along the chain shown (N, C = ends). Where no end group is shown, it is not given here.

Legend:
[1] = system: cetuximab; assay: SPR binding affinity as a function of buffer pH; conditions: pH=4.0 to pH=8.0
Text: FIG. 27 is a graph showing surface plasmon resonance (SPR) studies.

[2] = system: meditope-enabled M5A (M5A 8M); assay: SPR, meditope variants with meditope-enabled M5A; assay type: binding; conditions: FIG. 58
[3] = system: cetuximab; assay: SPR (Biacore T100), variant meditopes over immobilized cetuximab IgG or cetuximab Fab; assay type: binding; conditions: in words
Procedure: The final volume after dialysis was carefully measured and absorbance measurements were taken to estimate the concentration (typically 1-10 mM). These stock solutions were used to make dilutions into HBS-EP buffer (10 mM Hepes pH 7.4, 150 mM NaCl, 3 mM EDTA and 0.05% v/v surfactant P20) for SPR measurements. […] Ligands were immobilized at low levels suitable for kinetic data. Typical kinetics SPR experiments were carried out at a flow rate of 30 μL/min using HBS-EP as both running and regeneration buffer. Kinetic parameters were calculated using the Biacore T100 evaluation software version 2.0.1.
Each chip was first characterized using a soluble fragment of the entire extracellular domain of EGFR (residues 1-621).

[4] = system: MDA-MB-468 cells; assay: MTT assay; assay type: cell-based; conditions: for cell growth: 48-hour incubation, 0.1 μM cetuximab, 0.01, 0.1 and 1 μM meditope or meditope-Fc
Procedure: 4000 MDA-MB-468 cells were placed in each well of a 96 well plate in 80 μl of medium.
The assay compared the enhancement of cetuximab-mediated inhibition of antigen-expressing tumor cell growth by meditope-Fc and by M425 (a mouse anti-EGFR antibody). 4000 MDA-MB-468 cells were placed in each well of a 96 well plate in 80 μl of medium. […] After a 48-hour incubation period, 10 μl MTT reagent was added and the mixture allowed to incubate for an additional 4 hours. The culture supernatant was removed, 100 μl of MTT crystal dissolving reagent added, and the plate read at 630 nm.

[5] = system: MDA-MB-468 cells; assay: FACS, meditope binding to cetuximab pre-treated EGFR-expressing cells; assay type: cell-based
Procedure: In another study, the meditope-Fc fusion protein was labeled with Alexa488 as described above. […] Unbound antibody was washed and the cells were incubated with the meditope-Fc (600 nM, 180 nM, or 60 nM) for 30 minutes.

[6] = system: SKBR3 cells; assay: FACS, antibody and meditope binding to HER2 over-expressing cells; assay type: cell-based
Text: Unbound antibody was washed twice and analyzed by flow cytometry.

[7] = system: meditope-enabled trastuzumab (TM); assay: SPR, MPL linker variants flowed over immobilized TM; conditions: 1:1 langmuir binding model
Procedure: Protein was purified by affinity and size exclusion chromatography. […] Kinetic information was calculated using Biaevaluation software using a 1:1 langmuir binding model.

[8] = system: cetuximab Fab; assay: SPR, meditopes over cetuximab Fab immobilized on CM5 chip; assay type: binding; conditions: relative to WT cQFD
Procedure: Affinity analysis by SPR was performed as previously described (Donaldson et al., 2009; Li et al., 2005, supra). […] SEC was performed using a Superdex 200 10/300 column (GE Healthcare). The proteins were mixed, incubated at room temperature for 20 min and applied to the column at 4° C.
The binding kinetics were also measured (FIG. 3).
The point mutation and wild type cQFD meditopes were generated as C-terminal fusions to SMT3 and cleaved with Ulp1 before the analysis.

[9] = biological target: T1, sEGFRdIII (Homo sapiens, UniProt P00533); assay: FRET titration of labeled cetuximab Fab with labeled sEGFRdIII; assay type: binding; conditions: in the presence of the cQFD meditope (66 μM)
T1 construct: soluble epidermal growth factor receptor domain III (sEGFRdIII) were expressed in Sf9 cells; made in house; host or cells: Sf9 cells

[10] = system: MDA MB-468 cells; assay: FACS, cetuximab binding to EGFR-expressing cells in the presence of meditope; assay type: cell-based; conditions: meditope concentrations greater than 60 μM
Procedure: Labeled MOPS-21 was used as an isotype control. Cell fluorescence was determined using a FACS Calibur instrument (BD Biosciences).

T1 sequence (P00533 335-538 limits assumed): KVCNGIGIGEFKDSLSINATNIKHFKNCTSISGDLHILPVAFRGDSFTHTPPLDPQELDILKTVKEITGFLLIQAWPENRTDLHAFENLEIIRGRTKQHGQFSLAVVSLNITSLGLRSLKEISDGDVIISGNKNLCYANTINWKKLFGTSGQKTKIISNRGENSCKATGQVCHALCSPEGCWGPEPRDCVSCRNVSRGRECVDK

“C-QYDLSTRRLK-C (CQYDLSTRRLKC; disulfide 1-12) [Meditope 16, Y = tyrosine; Disulfide 1-Cys:12-Cys]” was tested, and the “pH dependence of affinity” value [1] was “marked decrease in affinity”.

For AcC-QFDLSTRRLR-CGGGSK [Meditope 31], the “binding to meditope-enabled antibody” value [2] was “confirming binding”.

“Q-FDLSTRRLK-X [Meditope 42, X = 7-aminoheptanoic acid; Lactam 1-Gln: 11-X]” was tested, and the “affinity compared to cQFD” value [3] was “decreased”.

“meditope-Fc: cQFD fused to the N-terminus of an IgG Fc region through a 17 amino acid glycine/serine linker” was tested, and the “enhancement of cell-killing capacity of cetuximab” value ([4]; 0.1 μM cetuximab with 0.2, 0.4 or 0.8 μM agent, 48 hours) was “enhanced the cell-killing capacity of cetuximab to a similar degree”, the cell growth [4] was “inhibited cell growth” and the “binding to cells pre-treated with cetuximab” value [5] was “higher affinity compared to the meditope monomer; also recorded: bound to the cells incubated with cetuximab, but not to cells incubated with M425”. The “meditope binding to antibody pre-bound cells” value [6] was “binds to the meditope-enabled trastuzumab, but not to wild-type trastuzumab”.

In the case of CC(C)C[C@@H]1NC(=O)[C@H](CCCNC(=N)N)NC(=O)[C@H](CCCNC(=N)N)NC(=O)[C@H]([C@@H](C)O)NC(=O)[C@H](CO)NC(=O)[C@H](CC(C)C)NC(=O)[C@H](CC(=O)O)NC(=O)[C@H](Cc2ccccc2)NC(=O)[C@H](CCC(N)=O)NC(=O)[C@@H](N)CSSC[C@@H](C(=O)O)NC(=O)[C@H](CCCCN)NC1=O [meditope], the “off-rate, kd” value [7] is reported as 0.01641 s⁻¹ and the “on-rate, ka” value [7] is reported as 13250 M⁻¹ s⁻¹.

CC(C)C[C@@H]1NC(=O)[C@H](CC(=O)O)NC(=O)[C@H](Cc2ccccc2)NC(=O)[C@H](CCC(N)=O)NC(=O)[C@@H](N)CSSC[C@@H](C(=O)O)NC(=O)[C@H](CCCCN)NC(=O)[C@H](C)NC(=O)[C@H](CCCNC(=N)N)NC(=O)[C@H](CCCNC(=N)N)NC(=O)[C@H]([C@@H](C)O)NC(=O)[C@H](CO)NC1=O [Meditope 29] (H-CQFDLSTRRAKC-OH; disulfide 1-12) gave a ΔΔG [8] of 0.63 kcal/mol.

For CC(C)C[C@@H]1NC(=O)[C@H](C)NC(=O)[C@H](CCCNC(=N)N)NC(=O)[C@H](CO)NC(=O)[C@H](CO)NC(=O)[C@H](CC(C)C)NC(=O)[C@H](CC(N)=O)NC(=O)[C@H](Cc2ccc(O)cc2)NC(=O)[C@H](CCC(N)=O)NC(=O)[C@@H](N)CSSC[C@@H](C(=O)O)NC(=O)[C@H](CCCCN)NC1=O [Meditope 2], the “affinity compared to cQFD” value [3] was “reduced”, the “pH dependence of affinity” value [1] was “flat pH dependence” and the “binding to meditope-enabled antibody” value [2] was “confirming binding”.

CC(C)C[C@@H]1NC(=O)[C@H](CCCNC(=N)N)NC(=O)[C@H](CCCNC(=N)N)NC(=O)[C@H]([C@@H](C)O)NC(=O)[C@H](CO)NC(=O)[C@H](CC(C)C)NC(=O)[C@H](CC(=O)O)NC(=O)[C@H](Cc2ccccc2)NC(=O)[C@H](CCC(N)=O)NC(=O)[C@@H](N)CSSC[C@@H](C(=O)O)NC(=O)[C@H](CCCCN)NC1=O [Meditope 1] was tested, and the “change in the binding constant of the Fab-sEGFRdIII interaction” value [9] was “no substantial change”, the cell growth [4] was “Neither addition of monovalent meditope (alone or with cetuximab), or meditope-Fc alone altered cell growth significantly” and the “pH dependence of affinity” value [1] was “slightly greater at higher pHs”. The “changes in cetuximab binding to the cells” value [10] was “no significant changes”.

“SQFDLSTRRLKS [Meditope 55, No linkage; linear peptide]” was tested, and the “affinity compared to cQFD” value [3] was “reduced affinity”.

For CC(C)C[C@@H]1NC(=O)[C@H](CCCNC(=N)N)NC(=O)[C@H](CCCNC(=N)N)NC(=O)[C@H]([C@@H](C)O)NC(=O)[C@H](CO)NC(=O)[C@H](CC(C)C)NC(=O)[C@H](CC(=O)O)NC(=O)[C@H](C(c2ccccc2)c2ccccc2)NC(=O)[C@H](CCC(N)=O)NC(=O)[C@@H](N)CSSC[C@@H](C(=O)O)NC(=O)[C@H](CCCCN)NC1=O [Meditope 17, C-QXDLSTRRLK-C], the “binding to meditope-enabled antibody” value [2] was “confirming binding”.

CC(C)C[C@@H]1NC(=O)[C@H](CCCNC(=N)N)NC(=O)[C@H](CCCNC(=N)N)NC(=O)[C@H]([C@@H](C)O)NC(=O)[C@H](CO)NC(=O)[C@H](C(c2ccccc2)c2ccccc2)NC(=O)[C@H](CC(=O)O)NC(=O)[C@H](Cc2ccccc2)NC(=O)[C@H](CCC(N)=O)NC(=O)[C@@H](N)CSSC[C@@H](C(=O)O)NC(=O)[C@H](CCCCN)NC1=O [Meditope 18, C-QFDXSTRRLK-C] was tested, and the “binding to meditope-enabled antibody” value [2] was “confirming binding”.

With “MPL (L3): meditope SCQFDLSTRRLKC fused to Protein L moiety through linker GGGGS” the “off-rate, kd” value [7] was 6.441e-05 s⁻¹, the “on-rate, ka” value [7] was 383200 M⁻¹ s⁻¹ and the “meditope binding to antibody pre-bound cells” value [6] was “tight binding affinity”.

B1: MPL F3A R8A (L3): MPL mutant weakening the affinity of the meditope portion, linker L3 (protein)
chain: SCQADLSTARLKCGGGGSEVTIKVNLIFADGKIQTAEFKGTFEEATAEAYRYAALLAKVNGEYTADLEDGGNHMNIKFAG
For B1, the “off-rate, kd” value [7] was 0.02239 s⁻¹, the “on-rate, ka” value [7] was 81350 M⁻¹ s⁻¹ and the Kd ([7]; read-out: Dissociation constant, KD) was 275 nM.
